The EC50 is the concentration at which the effect is half-maximal.

One test has as its system moderate and severe COPD. To be noted: phase II clinical study; cited from earlier work.
The test system of test [1] is tracheal smooth muscle of guinea pig. In words: Relaxation of CCh-induced constriction of isolated guinea pig tracheal smooth muscle (Experimental Example 1). The following applies: in vitro.
Test [2] concerns the target human recombinant M3 receptor (Homo sapiens, UniProt P20309). In words: biochemical. It is filed as binding. The following applies: 3H-QNB […], 25° C., 5 h; read-out: hM3Ki.
The target in test [3] is T1, human recombinant β2 adrenoceptor (Homo sapiens, UniProt P07550).
T1 construct: expressed in transfected cells
In words: cell-based. Format: cell-based.

Test [4] concerns the target human recombinant M1 receptor (Homo sapiens, UniProt P11229). In words: biochemical. It is filed as binding. The following applies: 3H-QNB […], 25° C., 5 h; read-out: hM1Ki.
Test [5] deals with human recombinant M2 receptor (Homo sapiens, UniProt P08172). The test is described as follows: biochemical. To be noted: 3H-QNB 1.81 nmol/L, 25° C., 5 h; read-out: hM2Ki. Format: binding.
For test [6], the target named is T2, human recombinant β1 adrenoceptor (Homo sapiens, UniProt P08588).
T2 construct: expressed in transfected cells
In words: cAMP accumulation, human recombinant β1 adrenoceptor. To be noted: cAMP accumulation; 10 nM ICI118551 added; HEK293 cells; read-out: EC50 (β1). It is filed as cell-based. The method, then:
In order to measure the activity and selectivity of agonists to human β1 and β2 adrenoceptors, the cAMP accumulation of expressed receptors in each recombinant cell line was measured. cAMP was determined by homology radioimmunoassay, that is, cells were washed with PSB buffer solution and suspended in the buffer solution at room temperature to grow to 30000-40000 cells per well. The test compound was diluted with PSB buffer solution containing 0.1% BSA and tested at 11 gradient concentrations ranging from 100 uM to 0.1 pM. For the analysis of β1-adrenoceptor, 10 nM of ICI118551 was added to block the expression of β2-adrenoceptor in HEK293 cells. After the compound was added to the suspended cells, the scintillation plate was incubated at 37° C. for 10 minutes, the reaction was terminated with ice-cold detection buffer solution, and its radioactivity was measured after storage at 4° C. overnight.
The agonistic activity (pEC50 value) was analyzed by regression using S-type dose response model of software package (GraphPad Software, San Diego, Calif.). Selectivity was calculated from the ratio of measured cAMP of β1 and β2 adrenoceptors, which was expressed as sel. β1/β2=(EC50 (β1)/EC50 (β2)).
In general terms: cAMP levels reflect the balance of adenylyl cyclase and phosphodiesterase activity.

T2 sequence (P08588 whole entry): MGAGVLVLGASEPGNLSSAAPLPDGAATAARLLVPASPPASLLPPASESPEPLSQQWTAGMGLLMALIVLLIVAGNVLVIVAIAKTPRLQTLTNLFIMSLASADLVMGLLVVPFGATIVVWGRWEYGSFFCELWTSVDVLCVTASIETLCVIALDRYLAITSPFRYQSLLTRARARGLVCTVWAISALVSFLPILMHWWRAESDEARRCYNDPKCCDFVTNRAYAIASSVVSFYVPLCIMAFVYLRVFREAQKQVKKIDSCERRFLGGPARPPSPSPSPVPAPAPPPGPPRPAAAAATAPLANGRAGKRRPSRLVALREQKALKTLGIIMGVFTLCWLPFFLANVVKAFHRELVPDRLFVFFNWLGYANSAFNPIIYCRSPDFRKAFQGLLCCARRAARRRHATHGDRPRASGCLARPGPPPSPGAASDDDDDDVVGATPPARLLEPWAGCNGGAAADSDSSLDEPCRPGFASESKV
human recombinant M1 receptor, sequence (P11229 whole entry): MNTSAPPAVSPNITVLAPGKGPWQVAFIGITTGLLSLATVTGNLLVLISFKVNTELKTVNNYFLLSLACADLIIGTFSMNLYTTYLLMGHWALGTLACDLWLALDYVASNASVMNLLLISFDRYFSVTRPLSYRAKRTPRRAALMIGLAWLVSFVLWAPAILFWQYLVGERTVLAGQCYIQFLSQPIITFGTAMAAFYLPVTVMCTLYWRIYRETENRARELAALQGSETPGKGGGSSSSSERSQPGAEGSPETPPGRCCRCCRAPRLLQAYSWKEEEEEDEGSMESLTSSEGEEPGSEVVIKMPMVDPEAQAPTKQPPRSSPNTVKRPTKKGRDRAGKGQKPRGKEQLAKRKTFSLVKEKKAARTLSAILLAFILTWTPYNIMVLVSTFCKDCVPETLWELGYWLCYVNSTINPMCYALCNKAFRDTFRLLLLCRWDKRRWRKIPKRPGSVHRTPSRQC
human recombinant M2 receptor, sequence (P08172 whole entry): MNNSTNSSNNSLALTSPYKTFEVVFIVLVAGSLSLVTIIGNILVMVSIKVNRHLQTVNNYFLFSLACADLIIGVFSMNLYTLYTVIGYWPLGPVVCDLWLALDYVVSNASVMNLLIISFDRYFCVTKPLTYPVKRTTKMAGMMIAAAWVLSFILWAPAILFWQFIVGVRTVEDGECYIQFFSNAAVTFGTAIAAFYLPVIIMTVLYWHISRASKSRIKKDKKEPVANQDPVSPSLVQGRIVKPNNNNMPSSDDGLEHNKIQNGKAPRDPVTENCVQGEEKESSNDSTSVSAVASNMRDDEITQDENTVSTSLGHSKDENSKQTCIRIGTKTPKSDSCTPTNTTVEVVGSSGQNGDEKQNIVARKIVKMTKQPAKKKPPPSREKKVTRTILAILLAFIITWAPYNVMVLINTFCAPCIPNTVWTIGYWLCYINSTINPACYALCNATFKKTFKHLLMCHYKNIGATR
human recombinant M3 receptor, sequence (P20309 whole entry): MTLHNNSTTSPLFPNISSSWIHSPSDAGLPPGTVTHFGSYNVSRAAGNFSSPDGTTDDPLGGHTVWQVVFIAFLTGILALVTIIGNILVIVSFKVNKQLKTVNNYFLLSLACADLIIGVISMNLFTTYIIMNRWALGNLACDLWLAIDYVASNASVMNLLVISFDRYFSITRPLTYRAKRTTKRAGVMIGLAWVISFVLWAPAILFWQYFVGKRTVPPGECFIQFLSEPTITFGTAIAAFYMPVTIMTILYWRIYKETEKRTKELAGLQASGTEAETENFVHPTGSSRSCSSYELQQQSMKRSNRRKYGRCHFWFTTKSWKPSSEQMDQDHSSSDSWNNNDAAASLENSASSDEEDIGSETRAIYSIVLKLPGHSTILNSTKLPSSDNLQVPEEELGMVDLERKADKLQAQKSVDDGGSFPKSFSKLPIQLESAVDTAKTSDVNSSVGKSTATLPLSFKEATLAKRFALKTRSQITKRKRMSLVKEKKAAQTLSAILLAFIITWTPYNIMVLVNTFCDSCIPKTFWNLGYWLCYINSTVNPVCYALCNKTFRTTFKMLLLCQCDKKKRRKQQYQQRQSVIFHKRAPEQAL

Regarding `COc1cc(NC(=O)CCN2CCC(OC(=O)Nc3ccccc3-c3ccccc3)CC2)c(Cl)cc1CNC[C@H](O)c1ccc(O)c2[nH]c(=O)ccc12` [TD5959], in the test with moderate and severe COPD, the “effect on moderate and severe COPD” value is “good effect on moderate and severe COPD”.

With “(R)-(−)-3-[(R)-2-hydroxy-2-cyclopentyl-2-phenyl]ethoxy-1-{3-[(4-(3-methyl-1-{(R)-[2-hydroxy-2-(6-hydroxy-2H-1,4-benzoxazin-3(4H)-one-8-yl)]ethylamino}ethylidene)phenoxy]propyl}-1-azabicyclo[2,2,2]octylonium bromide [Compound 63]”, the “Onset time (min) ± SD” value in test [1] (CCh 3 × 10^−6 mol/L) turned out to be 6.19 ± 0.12 min. In addition, the “Time for eliminating inhibition effect (min)” value in test [1] (CCh 3 × 10^−6 mol/L) is on record as “more than 300 min”. Moreover, the EC50 worked out at 0.0155 ± 0.0078 µM in test [1] (constriction induced by CCh 3 × 10^−6 mol/L, read-out: EC50 (μM) ± SD) and 17 ± 5.8 nM in test [6]. For the same compound, the Ki in test [2] came to 0.0198 ± 0.012 nM; in test [4], 0.0493 ± 0.021 nM; in test [5], 0.323 ± 0.17 nM. The “sel (β1/β2)” value in test [3] was 80.8.
